Counter-ions that a name gives are not always drawn.
What was measured:
[1] = tested on: methamphetamine-induced stereotyped behavior; experiment: Methamphetamine-induced stereotyped behavior in rats (Experiment 6); format: in vivo, rats (male Wistar strain, aged 8 weeks)
Experimental: Effects of the compounds on methamphetamine-induced stereotyped behavior in rats (male Wistar strain, aged 8 weeks) were examined according to the method of Ueki et al. (Folia Pharmacologica Japonica, 68, 716, 1972).
The rats were placed in separate plastic cages for 1 hour to be accustomed to the experimental conditions and then the tested compounds were given intraperitoneally followed, after 1 hour, by an intraperitoneal application of methamphetamine (5 mg/kg). The influence of the tested compounds on the agitated behavior of the rats were observed every 30 minutes till 5 hours thereafter.

[2] = tested on: reserpine-induced hypothermia; experiment: Reserpine-induced hypothermia in mice (Experiment 7); conditions: p.o.
[3] = Pharmacological activity of the isolated isomer salts (general statement); format: in vivo; conditions: statement in words
[4] = tested on: methamphetamine-induced stereotyped behavior; experiment: Potentiation of methamphetamine-induced stereotyped behavior in rats (Experiment 1); format: in vivo, rats (male Wistar strain, aged 6 weeks); conditions: for minimal effective dose: Rattus norvegicus, read-out: minimum effective dose causing statistically significant potentiation of the methamphetamine-induced stereotype; for minimum effective dose causing statistically significant potentiation of the methamphetamine-induced stereotype: i.p., 1 hour before methamphetamine 5 mg/Kg i.p., rats observed every 30 minutes until 5 hours
Experimental: The rats were placed in separate plastic cages for 1 hour to be accustomed to the experimental conditions, then the tested compounds were given intraperitoneally followed after 1 hour by an intraperitoneal application of methamphetamine (5 mg/Kg).

[5] = in vivo; conditions: mouse, po, male, 25-35 g
Description: Acute toxicity (ICR-JCR strain, male, weighing 25-35 g, p.o.)

[6] = tested on: reserpine induced ptoses and hypothermia; experiment: Competitive effects on reserpine induced ptoses and hypothermia in mice (Experiment 3); format: in vivo, mice (male ICR-JCL strain weighing 25-35 g); conditions: 10 mg/Kg, p.c. (so in the source), simultaneously with reserpine 2 mg/Kg i.p.; scored 0.5-6 hours; 10 mice
Experimental: The tested compound (10 mg/Kg, p.c.) and reserpine (2 mg/Kg, i.p.) were applied simultaneously to the mice and the degree of ptosis was scored according to the method of Ruben et al. (J. Pharmacol. Exptl. Ther., 120, 125, 1957) at 0.5, 1, 2, 3, 4, 5 and 6 hours after dosages, respectively.
Rectal temperature of the mice were also measured together with those of non-reserpinized mice. Inhibitory percent of the degree of ptosis and differences between rectal temperatures of reserpinized and non-reserpinized mice due to the tested compound are shown in the following Table. For each experiment 10 mice were used.

C1=Cc2c(cccc2OCC2CNCCO2)C1.Cl (stereo not shown) [2-(4-indenyloxymethyl)-morpholine hydrochloride]
ED50 ([1]; Rattus norvegicus, ip, 1 hour before methamphetamine 5 mg/kg i.p.): 5 mg/kg

C1=Cc2cccc(OCC3CNCCO3)c2C1.Cl (stereo not shown) [2-(7-indenyloxymethyl)morpholine hydrochloride]
potency compared with 2-(4-indenyloxymethyl) morpholine hydrochloride [2]: more potent than the latter
relative potency vs 2-(4-indenyloxymethyl) morpholine hydrochloride ([1]; ratio of ED50, i.p.): 2.5 times

C1=Cc2cccc(OCC3CNCCO3)c2C1 (stereo not drawn) [7-isomer acid addition salt, acid addition salt of 2-(7-indenyloxymethyl) morpholine]
pharmacological activity compared with the 4-isomer acid addition salt [3]: more preferable pharmacological activity than the 4-isomer acid addition salt

CN(C)CCC=C1c2ccccc2CCc2ccccc21 [Amitriptyline, reference compound]
minimal effective dose [4]: 10 mg/kg

CC(C)N1CCOC(COc2cccc3c2CCC3)C1 (stereo not shown) [Compound C, 2-(4-indanyloxymethyl)-4-isopropyl morpholine, reference compound]
minimum effective dose causing statistically significant potentiation of the methamphetamine-induced stereotype [4]: non effective

CC(C)N1CCOC(COc2cccc3c2CC=C3)C1 (stereo not shown) [Example 1, 4-isopropyl-2-(7-indenyloxymethyl)morpholine]
LD50 [5]: 650 mg/kg
minimal effective dose [4]: 0.3 mg/kg
Inhibition of ptosis (%) [6]: 14.5%

CCCCN1CCOC(COc2cccc3c2CC=C3)C1 (stereo not shown) [Example 2, 4-butyl-2-(7-indenyloxymethyl)-morpholine]
minimal effective dose [4]: 3 mg/kg

CCN1CCOC(COc2cccc3c2CC=C3)C1 (stereo not shown) [Example 5, 4-ethyl-2-(7-indenyloxymethyl)morpholine]
LD50 [5]: 700 mg/kg
minimal effective dose [4]: 0.3 mg/kg

CCCN1CCOC(COc2cccc3c2CC=C3)C1 (stereo not shown) [Example 6, 2-(7-indenyloxymethyl)-4-propylmorpholine]
minimal effective dose [4]: 1 mg/kg

CC1=CCc2c(OCC3CNCCO3)cccc21 (stereo not shown) [Example 11, 2-(3-methyl-7-indenyloxymethyl)morpholine]
minimal effective dose [4]: 0.3 mg/kg

CC1=CCc2c(OCC3CN(C(C)C)CCO3)cccc21 (stereo not shown) [Example 12A, 4-isopropyl-2-(3-methyl-7-indenyloxymethyl)morpholine]
minimal effective dose [4]: 0.03 mg/kg

CC1=CCc2cccc(OCC3CN(C(C)C)CCO3)c21 (stereo not shown) [Example 12B, 4-isopropyl-2-(3-methyl-4-indenyloxymethyl)morpholine]
minimal effective dose [4]: 0.3 mg/kg

CCOc1ccccc1OCC1CNCCO1 (stereo not shown) [Viloxazine HCl, 2-(2-ethoxyphenoxymethyl) morpholine, reference compound]
minimum effective dose causing statistically significant potentiation of the methamphetamine-induced stereotype [4]: non effective
Inhibition of ptosis (%) [6]: 6.0%

mixture of 2-(4-indenyloxymethyl)morpholine and 2-(7-indenyloxymethyl) morpholine [Example 10]
minimum effective dose causing statistically significant potentiation of the methamphetamine-induced stereotype [4]: 0.3 mg/kg
